Laboratory results taken from ChEMBL document CHEMBL1201862, “PubChem BioAssay data set” (2004).
Values joined by “and” are separate entries in the source; they are usually repeats but may differ in a detail not shown here. Equal entries are not always repeated.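 Cultured in 96-well plates, cells were exposed to test compound for 48 hours across five concentrations. The concentration for 50% growth inhibition is given as GI50.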 Active and inactive are the calls of the source. Rule as the data show it: active = GI50 up to about 1.1 µM and inactive = higher.

How the values were obtained:
Assay in all cases: DTP human tumour cell line panel, 48 h
SK-MEL-28 = system: SK-MEL-28
T47D = system: T47D
HCT-116 = system: HCT-116
Malme-3M = system: Malme-3M
A549 = system: A549
HOP-92 = system: HOP-92
UACC-257 = system: UACC-257
NCI-H226 = system: NCI-H226
NCI-H460 = system: NCI-H460
A498 = system: A498
SK-OV-3 = system: SK-OV-3
SW-620 = system: SW-620
DU-145 = system: DU-145
TK-10 = system: TK-10
SN12C = system: SN12C
HCT-15 = system: HCT-15
MDA-MB-435 = system: MDA-MB-435
CAKI-1 = system: CAKI-1
NCI/ADR-RES = system: NCI/ADR-RES
MCF7 = system: MCF7

Compound | GI50 (SK-MEL-28) | GI50 (T47D) | GI50 (HCT-116) | GI50 (Malme-3M) | GI50 (A549) | GI50 (HOP-92) | GI50 (UACC-257) | GI50 (NCI-H226) | GI50 (NCI-H460) | GI50 (A498) | GI50 (SK-OV-3) | GI50 (SW-620) | GI50 (DU-145) | GI50 (TK-10) | GI50 (SN12C) | GI50 (HCT-15) | GI50 (MDA-MB-435) | GI50 (CAKI-1) | GI50 (NCI/ADR-RES) | GI50 (MCF7)
C=C1CC2OC2(C(=O)O[C@H]2CCC3[C@@H]4CCC5=CC(=O)CC[C@]5(C)C4CC[C@@]32C)C1=O (stereo partly specified) | 8.87 µM (inactive) | 3.3 µM (inactive) | 5.81 µM (inactive) | 6.56 µM (inactive) | 21.3 µM (inactive) | 9.75 µM (inactive) | 8.05 µM (inactive) | 22.9 µM (inactive) | 11 µM (inactive) | 13.6 µM (inactive) | 20 µM (inactive) | 3.4 µM (inactive) | 17.8 µM (inactive) | 6.49 µM (inactive) | 6.52 µM (inactive) | 3.68 µM | 12.7 µM (inactive) | 11.9 µM (inactive) | – | –
CN(C)c1ccc(/N=N/c2ccc3[nH]cnc3c2)cc1 | 11.5 µM (inactive) | 29.5 µM (inactive) | 18 µM (inactive) | 25.2 µM (inactive) | 29.7 µM (inactive) | – | 23 µM (inactive) | 34 µM (inactive) | 18.8 µM (inactive) | 20.4 µM (inactive) | > 10 µM (inactive) | 29.6 µM (inactive) | 27.4 µM (inactive) | 22.5 µM (inactive) | 22 µM (inactive) | 22.1 µM | 19.5 µM (inactive) | 42.2 µM (inactive) | 41 µM (inactive) | –
C/C(=N\c1ccc(N(C)C)cc1)c1ccccc1 | 33.7 µM (inactive) | 21.7 µM (inactive) | 16.9 µM (inactive) | 10.9 µM (inactive) | 27.9 µM (inactive) | – | > 10 µM (inactive) | 76.2 µM (inactive) | 81.1 µM (inactive) | > 100 µM (inactive) | > 100 µM (inactive) | 17.9 µM (inactive) | 34.9 µM (inactive) | 20.8 µM (inactive) | 17.4 µM (inactive) | 18.5 µM | – | 19.8 µM (inactive) | 27 µM (inactive) | 21.9 µM (inactive)
C=C[C@]1(C)CC(=O)C(C(C)C=O)[C@]12C(=O)Oc1cccc(C)c1C2=O (stereo partly specified) | 15.2 µM (inactive) | 16.4 µM (inactive) | 7.85 µM (inactive) | 18 µM (inactive) | 18 µM (inactive) | – | 17.6 µM (inactive) | 15.3 µM (inactive) | 16.6 µM (inactive) | 25.9 µM (inactive) | 16.6 µM (inactive) | 11.8 µM (inactive) | 16.8 µM (inactive) | 14.8 µM (inactive) | 16.3 µM (inactive) | 14.9 µM | 15.2 µM (inactive) | 14.4 µM (inactive) | – | 16.5 µM (inactive)
O=C(Nn1cnn2c(=O)c3ccccc3nc2c1=O)c1ccccc1 | > 100 µM (inactive) | > 100 µM (inactive) | > 100 µM (inactive) | > 100 µM (inactive) | > 100 µM (inactive) | > 100 µM (inactive) | > 100 µM (inactive) | > 100 µM (inactive) | > 100 µM (inactive) | > 100 µM (inactive) | > 100 µM (inactive) | > 100 µM (inactive) | > 100 µM (inactive) | > 100 µM (inactive) | > 100 µM (inactive) | > 100 µM | > 100 µM (inactive) | > 100 µM (inactive) | – | > 100 µM (inactive)
O=C1C(=O)N(c2cccc(C(F)(F)F)c2)C(=S)N1c1ccccc1 | 28 µM (inactive) | 25.4 µM (inactive) | 31.7 µM (inactive) | 31.8 µM (inactive) | 33.3 µM (inactive) | 19.1 µM (inactive) | 25.8 µM (inactive) | 24.5 µM (inactive) | 2.32 µM (inactive) | 21.9 µM (inactive) | 19.3 µM (inactive) | 36.2 µM (inactive) | 22.2 µM (inactive) | 2.84 µM (inactive) | 34.4 µM (inactive) | 19.1 µM | 27.4 µM (inactive) | 29.2 µM (inactive) | 31.8 µM (inactive) | –
COc1c2c(cc3nc4ccccc4nc13)CC[C@H](NC(C)=O)c1cc(=O)c(SC)ccc1-2 | 12.7 µM (inactive) | – | 0.46 µM (active) | 0.288 µM (active) | 4.29 µM (inactive) | 5.75 µM (inactive) | 1.59 µM (inactive) | 1.08 µM (active) | 0.933 µM (active) | 7.62 µM (inactive) | 5.28 µM (inactive) | 0.582 µM (active) | 2.47 µM (inactive) | 8.07 µM (inactive) | 2.79 µM (inactive) | 2.84 µM | 0.132 µM (active) | 5.62 µM (inactive) | 12.5 µM (inactive) | 0.327 µM (active)
COC(=O)C1=COC(C)C2CN3CCc4c([nH]c5cc(OC)c(OC)cc45)C3CC12 (stereo unspecified) | – | 40.6 µM (inactive) and 34.6 µM (inactive) | – | > 100 µM (inactive) | 96.8 µM (inactive) and 49.5 µM (inactive) | 22 µM (inactive) and 40.8 µM (inactive) | > 100 µM (inactive) | > 100 µM (inactive) and 61.5 µM (inactive) | – | > 100 µM (inactive) and 87.7 µM (inactive) | > 100 µM (inactive) | – | > 100 µM (inactive) and 98.9 µM (inactive) | > 100 µM (inactive) and 87.1 µM (inactive) | > 100 µM (inactive) and 68.1 µM (inactive) | 43.8 µM and 25.1 µM | > 100 µM (inactive) and 72.6 µM (inactive) | > 100 µM (inactive) | – | –
CC(=O)C(=[N+]=[N-])C(=O)N(C)CCC#N | > 10 µM (inactive) | > 10 µM (inactive) | > 10 µM (inactive) | > 10 µM (inactive) | > 10 µM (inactive) | > 10 µM (inactive) | > 10 µM (inactive) | > 10 µM (inactive) | > 10 µM (inactive) | > 10 µM (inactive) | > 10 µM (inactive) | > 10 µM (inactive) | > 10 µM (inactive) | > 10 µM (inactive) | > 10 µM (inactive) | > 10 µM | > 10 µM (inactive) | – | – | > 10 µM (inactive)
O=[N+]([O-])c1ccc2c(c1)Sc1ccccc1N2 | > 100 µM (inactive) | – | 9.57 µM (inactive) | > 100 µM (inactive) | 8.51 µM (inactive) | 6.12 µM (inactive) | > 100 µM (inactive) | > 100 µM (inactive) | 22.8 µM (inactive) | 14.1 µM (inactive) | – | 43.9 µM (inactive) | 74.6 µM (inactive) | > 100 µM (inactive) | > 100 µM (inactive) | 27.6 µM | 3.72 µM (inactive) | > 100 µM (inactive) | 14.4 µM (inactive) | 44.6 µM (inactive)
N=c1c2c(-c3ccccc3)c[nH]c2ncn1N | > 100 µM (inactive) | > 100 µM (inactive) | > 100 µM (inactive) | – | > 100 µM (inactive) | > 100 µM (inactive) | > 100 µM (inactive) | > 100 µM (inactive) | – | > 100 µM (inactive) | > 100 µM (inactive) | > 100 µM (inactive) | – | > 100 µM (inactive) | > 100 µM (inactive) | > 100 µM | > 100 µM (inactive) | > 100 µM (inactive) | > 100 µM (inactive) | > 100 µM (inactive)
